Laboratory results as given in PubChem BioAssay (NCI).
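Results reflect a 48-hour exposure of cells in 96-well plates to compound at five concentrations. GI50 = concentration required for 50% inhibition of growth. The concentration for full growth arrest is given as TGI.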

Tests used:
Experiment in all cases: DTP human tumour cell line panel, 48 h
RXF 393 renal = system: RXF 393 renal
SF-539 CNS = system: SF-539 CNS
UO-31 renal = system: UO-31 renal
A549 NSCLC = system: A549 NSCLC
HCC-2998 colon = system: HCC-2998 colon
BT-549 breast = system: BT-549 breast
M14 melanoma = system: M14 melanoma
RPMI-8226 leukemia = system: RPMI-8226 leukemia
OVCAR-5 ovarian = system: OVCAR-5 ovarian
OVCAR-3 ovarian = system: OVCAR-3 ovarian
SK-OV-3 ovarian = system: SK-OV-3 ovarian
HCT-116 colon = system: HCT-116 colon
SNB-75 CNS = system: SNB-75 CNS
OVCAR-4 ovarian = system: OVCAR-4 ovarian
CAKI-1 renal = system: CAKI-1 renal
EKVX NSCLC = system: EKVX NSCLC
SK-MEL-28 melanoma = system: SK-MEL-28 melanoma
SW-620 colon = system: SW-620 colon
MDA-MB-231 breast = system: MDA-MB-231 breast
U251 CNS = system: U251 CNS
DU-145 prostate = system: DU-145 prostate
NCI-H226 lung = system: NCI-H226 lung
MDA-MB-435 = system: MDA-MB-435
HS 578T breast = system: HS 578T breast
MCF7 breast = system: MCF7 breast
T-47D breast = system: T-47D breast
SF-295 CNS = system: SF-295 CNS

CCCCCCCCCNCCCCCCCCC
TGI (RXF 393 renal): 3.25 µM
GI50 (SF-539 CNS): 1.9 µM
TGI (SF-539 CNS): 3.4 µM
GI50 (UO-31 renal): 1.62 µM
TGI (UO-31 renal): 3.8 µM
GI50 (A549 NSCLC): 2.04 µM
TGI (A549 NSCLC): 4.08 µM
GI50 (HCC-2998 colon): 1.69 µM
TGI (HCC-2998 colon): 3.24 µM
GI50 (BT-549 breast): 1.93 µM
TGI (BT-549 breast): 3.38 µM
GI50 (M14 melanoma): 1.76 µM
TGI (M14 melanoma): 3.19 µM
GI50 (RPMI-8226 leukemia): 1.96 µM
TGI (RPMI-8226 leukemia): 4.18 µM
GI50 (OVCAR-5 ovarian): 1.88 µM
TGI (OVCAR-5 ovarian): 3.91 µM
GI50 (OVCAR-3 ovarian): 1.93 µM
TGI (OVCAR-3 ovarian): 3.46 µM
GI50 (SK-OV-3 ovarian): 2.04 µM
TGI (SK-OV-3 ovarian): 3.83 µM
GI50 (HCT-116 colon): 1.77 µM
TGI (HCT-116 colon): 3.16 µM
GI50 (SNB-75 CNS): 1.57 µM
TGI (SNB-75 CNS): 3.38 µM
GI50 (OVCAR-4 ovarian): 1.75 µM
TGI (OVCAR-4 ovarian): 3.78 µM
GI50 (CAKI-1 renal): 1.49 µM
TGI (CAKI-1 renal): 3.09 µM
GI50 (EKVX NSCLC): 2.15 µM
TGI (EKVX NSCLC): 5.95 µM
GI50 (SK-MEL-28 melanoma): 1.76 µM
TGI (SK-MEL-28 melanoma): 3.29 µM
GI50 (SW-620 colon): 1.76 µM
TGI (SW-620 colon): 3.48 µM
GI50 (MDA-MB-231 breast): 1.56 µM
TGI (MDA-MB-231 breast): 3.21 µM
GI50 (U251 CNS): 1.71 µM
TGI (U251 CNS): 3.15 µM
GI50 (DU-145 prostate): 1.85 µM
TGI (DU-145 prostate): 3.74 µM
GI50 (NCI-H226 lung): 1.83 µM
TGI (NCI-H226 lung): 3.61 µM
GI50 (MDA-MB-435): 1.85 µM
TGI (MDA-MB-435): 3.58 µM
GI50 (HS 578T breast): 1.83 µM
TGI (HS 578T breast): 4.16 µM
GI50 (MCF7 breast): 1.7 µM
TGI (MCF7 breast): 3.3 µM
GI50 (T-47D breast): 1.91 µM
TGI (T-47D breast): 3.59 µM
GI50 (SF-295 CNS): 1.74 µM
TGI (SF-295 CNS): 3.29 µM
